# Source: ChEMBL document CHEMBL3785006, “Discovery of 2-Indole-acylsulfonamide Myeloid Cell Leukemia 1 (Mcl-1) Inhibitors Using Fragment-Based Methods” (J Med Chem, 2016)
# Experiments:
# [1] = target: T1, Induced myeloid leukemia cell differentiation protein Mcl-1 (Homo sapiens, UniProt Q07820)
# [2] = target: T1, Induced myeloid leukemia cell differentiation protein Mcl-1; remark: listed apart in the source
# [3] = target: Bcl-2-like protein 1 (Homo sapiens, UniProt Q07817)
# [4] = target: T1, Induced myeloid leukemia cell differentiation protein Mcl-1; remark: listed apart in the source
# T1 sequence (Q07820 whole entry): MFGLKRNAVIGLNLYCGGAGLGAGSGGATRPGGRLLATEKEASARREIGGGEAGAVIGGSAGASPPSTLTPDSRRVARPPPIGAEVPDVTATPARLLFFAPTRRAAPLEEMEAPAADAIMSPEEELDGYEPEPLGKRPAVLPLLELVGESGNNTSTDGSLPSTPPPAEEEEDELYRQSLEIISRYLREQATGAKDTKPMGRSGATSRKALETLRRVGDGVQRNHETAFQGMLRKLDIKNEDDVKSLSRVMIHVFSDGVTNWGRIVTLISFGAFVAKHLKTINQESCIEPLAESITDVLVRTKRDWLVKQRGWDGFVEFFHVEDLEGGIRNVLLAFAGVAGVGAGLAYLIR
# Sequence of Bcl-2-like protein 1 (Q07817 whole entry): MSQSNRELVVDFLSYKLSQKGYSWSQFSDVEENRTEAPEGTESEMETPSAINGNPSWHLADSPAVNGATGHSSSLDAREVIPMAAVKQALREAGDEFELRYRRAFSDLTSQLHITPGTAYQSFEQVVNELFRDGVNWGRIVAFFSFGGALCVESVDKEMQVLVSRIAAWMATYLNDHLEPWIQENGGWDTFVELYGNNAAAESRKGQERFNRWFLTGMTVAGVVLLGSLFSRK
Ki [1],Compound,also measured
193 nM,Cc1cc(OCCCc2c(C(=O)NS(=O)(=O)CCNC(=O)[C@@H]3Cc4ccccc4N3)[nH]c3ccccc23)cc(C)c1Cl,–
117 nM,Cc1cc(OCCCc2c(C(=O)NS(=O)(=O)CCNC(=O)c3ccc(F)cc3)[nH]c3ccccc23)cc(C)c1Cl,–
278 nM,Cc1cc(OCCCc2c(C(=O)NS(=O)(=O)CCNC(=O)c3ccc4cc[nH]c4c3)[nH]c3ccccc23)cc(C)c1Cl,–
148 nM,Cc1cc(OCCCc2c(C(=O)NS(=O)(=O)CCNC(=O)c3cccn3Cc3ccccc3)[nH]c3ccccc23)cc(C)c1Cl,–
656 nM,CC(=O)NCCS(=O)(=O)NC(=O)c1[nH]c2ccccc2c1CCCOc1cc(C)c(Cl)c(C)c1,–
139 nM,Cc1cc(OCCCc2c(C(=O)NS(=O)(=O)CCNC(=O)c3cccn3-c3ccccc3)[nH]c3ccccc23)cc(C)c1Cl,–
655 nM,Cc1cc(OCCCc2c(C(=O)NS(C)(=O)=O)[nH]c3ccccc23)cc(C)c1Cl,–
430 nM,Cc1cc(OCCCc2c(C(=O)NS(=O)(=O)CCNC(=O)c3ccccc3)[nH]c3ccccc23)cc(C)c1Cl,–
298 nM,Cc1cc(OCCCc2c(C(=O)NS(=O)(=O)CCNC(=O)Cc3cn(C)c4ccccc34)[nH]c3ccccc23)cc(C)c1Cl,–
336 nM,Cc1cc(OCCCc2c(C(=O)NS(=O)(=O)CCNC(=O)c3ccccc3F)[nH]c3ccccc23)cc(C)c1Cl,–
100 nM,Cc1cc(OCCCc2c(C(=O)NS(=O)(=O)CCNC(=O)c3cccc(F)c3)[nH]c3ccccc23)cc(C)c1Cl,–
311 nM,Cc1cc(OCCCc2c(C(=O)NS(=O)(=O)CCNC(=O)c3cc4ccccc4o3)[nH]c3ccccc23)cc(C)c1Cl,–
322 nM,Cc1cc(OCCCc2c(C(=O)NS(=O)(=O)CCOc3ccccc3)[nH]c3ccccc23)cc(C)c1Cl,–
90 nM,Cc1cc(OCCCc2c(C(=O)NS(=O)(=O)CCNC(=O)c3cccn3C)[nH]c3ccccc23)cc(C)c1Cl,–
335 nM,Cc1cc(OCCCc2c(C(=O)NS(=O)(=O)c3ccncc3)[nH]c3ccccc23)cc(C)c1Cl,–
432 nM,Cc1cc(OCCCc2c(C(=O)NS(=O)(=O)CCNC(=O)c3cn(C)c4ccccc34)[nH]c3ccccc23)cc(C)c1Cl,–

# More lines, now with the values behind:
Compound,Ki [1],also measured
Cc1cc(OCCCc2c(C(=O)NS(=O)(=O)CCNC(=O)c3cc(-c4ccccc4O)n[nH]3)[nH]c3cc(Cl)ccc23)cc(C)c1Cl,308 nM,–
Cc1cc(OCCCc2c(C(=O)NS(=O)(=O)CCNC(=O)C3CCCCC3)[nH]c3cc(Cl)ccc23)cc(C)c1Cl,55 nM,–
Cc1cc(OCCCc2c(C(=O)NS(=O)(=O)CCNC(=O)c3cccc(C(F)(F)F)c3)[nH]c3cc(Cl)ccc23)cc(C)c1Cl,79 nM,–
Cc1cc(OCCCc2c(C(=O)NS(=O)(=O)CCNC(=O)CC(C)C)[nH]c3cc(Cl)ccc23)cc(C)c1Cl,10 nM,–
Cc1cc(OCCCc2c(C(=O)NS(=O)(=O)c3ccc(C(=O)O)o3)[nH]c3c(-c4c(C)nn(C)c4C)c(Cl)ccc23)cc(C)c1Cl,–,IC50 [2]: 2.1 nM; Ki [2]: 0.78 nM
Cc1cc(OCCCc2c(C(=O)NS(=O)(=O)c3cccc(CNC(=O)c4cccc(C(F)(F)F)c4)c3)[nH]c3c(-c4c(C)nn(C)c4C)c(Cl)ccc23)cc(C)c1Cl,< 10 nM,Ki [2]: 7 nM; Ki [3]: 12900 nM; Ki [4]: 78 nM
Cc1cc(OCCCc2c(C(=O)NS(=O)(=O)CCNS(=O)(=O)C3CCCCC3)[nH]c3ccccc23)cc(C)c1Cl,251 nM,–
Cc1cc(OCCCc2c(C(=O)NS(=O)(=O)CCNC(=O)c3ccc4[nH]ccc4c3)[nH]c3ccccc23)cc(C)c1Cl,269 nM,–
Cc1cc(OCCCc2c(C(=O)NS(=O)(=O)CCNC(=O)C(C)C)[nH]c3cc(Cl)ccc23)cc(C)c1Cl,66 nM,–
Cc1cc(OCCCc2c(C(=O)NS(=O)(=O)CCNC(=O)c3ccoc3)[nH]c3cc(Cl)ccc23)cc(C)c1Cl,19 nM,–
CC(=O)NCCS(=O)(=O)NC(=O)c1[nH]c2cc(Cl)ccc2c1CCCOc1cc(C)c(Cl)c(C)c1,209 nM,–
CS(=O)(=O)NC(=O)c1[nH]c2cc(Cl)ccc2c1CCCOc1cccc2ccccc12,231 nM,–
Cc1cc(OCCCc2c(C(=O)NS(=O)(=O)CCNC(=O)[C@@H]3Cc4ccccc4N3)[nH]c3cc(Cl)ccc23)cc(C)c1Cl,46 nM,–
Cc1ccncc1-c1cccc2c(CCCOc3cc(C)c(Cl)c(C)c3)c(C(=O)NS(=O)(=O)c3ccccc3)[nH]c12,36 nM,–
Cc1cc(OCCCc2c(C(=O)NS(=O)(=O)c3ccccc3)[nH]c3c(-c4cccnc4C)cccc23)cc(C)c1Cl,14 nM,–
Cc1cc(OCCCc2c(C(=O)NS(=O)(=O)CCNC(=O)c3ccco3)[nH]c3cc(Cl)ccc23)cc(C)c1Cl,53 nM,–
Cc1cc(OCCCc2c(C(=O)NS(=O)(=O)c3ccccc3)[nH]c3c(-c4c(C)n[nH]c4C)cccc23)cc(C)c1Cl,< 10 nM,Ki [4]: 517 nM
Cc1cc(OCCCc2c(C(=O)NS(=O)(=O)CCNC(=O)CC3CCCCC3)[nH]c3ccccc23)cc(C)c1Cl,1100 nM,–

Compound,Ki [1],also measured
Cc1cc(OCCCc2c(C(=O)NS(=O)(=O)c3ccccc3)[nH]c3c(-c4c(C)n[nH]c4C)c(Cl)ccc23)cc(C)c1Cl,< 10 nM,Ki [4]: 147 nM
CCC(=O)NCCS(=O)(=O)NC(=O)c1[nH]c2cc(Cl)ccc2c1CCCOc1cc(C)c(Cl)c(C)c1,87 nM,–
Cc1cc(OCCCc2c(C(=O)NS(=O)(=O)CCNC(=O)[C@H]3Cc4ccccc4N3)[nH]c3cc(Cl)ccc23)cc(C)c1Cl,28 nM,–
Cc1cc(OCCCc2c(C(=O)NS(=O)(=O)CCCNC3CCCCC3)[nH]c3ccccc23)cc(C)c1Cl,1020 nM,–
Cc1cc(OCCCc2c(C(=O)NS(=O)(=O)c3ccccc3)[nH]c3c(-c4cccnc4C)c(Cl)ccc23)cc(C)c1Cl,< 10 nM,Ki [2]: 18 nM; Ki [4]: 146 nM
Cc1cc(OCCCc2c(C(=O)NS(=O)(=O)CCNC(=O)C3CCCCC3)[nH]c3ccccc23)cc(C)c1Cl,118 nM,–
Cc1cc(OCCCc2c(C(=O)NS(=O)(=O)CCNC(=O)C(F)(F)F)[nH]c3cc(Cl)ccc23)cc(C)c1Cl,116 nM,–
Cc1cc(OCCCc2c(C(=O)NS(=O)(=O)c3ccccc3)[nH]c3c(-c4c(C)nn(C)c4C)c(Cl)ccc23)cc(C)c1Cl,< 10 nM,Ki [2]: 17 nM; Ki [4]: 64 nM
Cc1cc(OCCCc2c(C(=O)NS(=O)(=O)CCNC(=O)c3ccccc3C(F)(F)F)[nH]c3cc(Cl)ccc23)cc(C)c1Cl,18 nM,–
Cc1cc(OCCCc2c(C(=O)NS(C)(=O)=O)[nH]c3cc(Cl)ccc23)cc(C)c1Cl,209 nM,–
CCC(CC)C(=O)NCCS(=O)(=O)NC(=O)c1[nH]c2cc(Cl)ccc2c1CCCOc1cc(C)c(Cl)c(C)c1,16 nM,–
Cc1cc(OCCCc2c(C(=O)NS(=O)(=O)CCNC(=O)c3ccc(C(F)(F)F)cc3)[nH]c3cc(Cl)ccc23)cc(C)c1Cl,119 nM,–
Cc1cc(OCCCc2c(C(=O)NS(=O)(=O)c3ccco3)[nH]c3cc(Cl)ccc23)cc(C)c1Cl,116 nM,–
Cc1cc(OCCCc2c(C(=O)NS(=O)(=O)c3ccccc3)[nH]c3cc(Cl)ccc23)cc(C)c1Cl,91 nM,–
Cc1cc(OCCCc2c(C(=O)NS(=O)(=O)c3ccccc3)[nH]c3c(-c4cccnc4)cccc23)cc(C)c1Cl,202 nM,–
O=C(NS(=O)(=O)CCNC(=O)C1CCCCC1)c1[nH]c2cc(Cl)ccc2c1CCCOc1cccc2ccccc12,374 nM,–
Cc1cc(OCCCc2c(C(=O)NS(=O)(=O)c3cccc(CNC(=O)c4ccccc4C(F)(F)F)c3)[nH]c3c(-c4c(C)nn(C)c4C)c(Cl)ccc23)cc(C)c1Cl,< 10 nM,Ki [2]: 5 nM; Ki [3]: 4470 nM; Ki [4]: 80 nM
Cc1cc(OCCCc2c(C(=O)NS(=O)(=O)CCNC(=O)c3ccc[nH]3)[nH]c3cc(Cl)ccc23)cc(C)c1Cl,782 nM,–
